Measured values taken from the supplement of paper PMC10883282.

Legend:
Assay in all cases: relative viability vs DMSO control (72 h) (fraction); higher = more viable cells
SW872 = tested on: SW872
Method in brief: (§1)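 Sarcoma cell lines in 384-well plates, seeded to reach 80–90% confluence, were given compound after 24 h and kept 72 h at 37 °C, 5% CO2, with 0.1% DMSO vehicle and a 5 µM positive control. Relative viability came from ATPLite as percent growth, averaged over up to triplicate wells. On the rescaled values, 1 equals full and 0 equals none.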

VA-ES-BJ = tested on: VA-ES-BJ
Method in brief: as §1

SW684 = tested on: SW684
Method in brief: as §1

KHOS-NP = tested on: KHOS-NP
Method in brief: as §1

RD = tested on: RD
Method in brief: as §1

RD-ES = tested on: RD-ES
Method in brief: as §1

MES-SA = tested on: MES-SA
Method in brief: as §1

G401 = tested on: G401
Method in brief: as §1

HT1080 = tested on: HT1080
Method in brief: as §1

SW1353 = tested on: SW1353
Method in brief: as §1

SK-ES-1 = tested on: SK-ES-1
Method in brief: as §1

SK-LMS-1 = tested on: SK-LMS-1
Method in brief: as §1

COCCNc1cc(NC(=O)N2CCCc3cc(CN4CCN(C)CC4=O)c(C=O)nc32)ncc1C#N [Roblitinib]
Details | relative viability
G401, 0.00017 µM | 0.974
G401, 0.00051 µM | 0.955
G401, 0.00152 µM | 0.929
G401, 0.00457 µM | 0.9122
G401, 0.01372 µM | 0.943
G401, 0.04115 µM | 0.93
G401, 0.1235 µM | 0.96
G401, 0.3704 µM | 0.967
G401, 1.111 µM | 0.943
G401, 3.333 µM | 0.935
G401, 10 µM | 0.8671
HT1080, 0.00017 µM | 1
HT1080, 0.00051 µM | 1.04
HT1080, 0.00152 µM | 0.971
HT1080, 0.00457 µM | 0.9973
HT1080, 0.01372 µM | 0.951
HT1080, 0.04115 µM | 1.04
HT1080, 0.1235 µM | 1.05
HT1080, 0.3704 µM | 1.07
HT1080, 1.111 µM | 0.952
HT1080, 3.333 µM | 1.029
HT1080, 10 µM | 0.997
KHOS-NP, 0.00017 µM | 1.05
KHOS-NP, 0.00051 µM | 1.03
KHOS-NP, 0.00152 µM | 1.04
KHOS-NP, 0.00457 µM | 1.04
KHOS-NP, 0.01372 µM | 1.05
KHOS-NP, 0.04115 µM | 1.04
KHOS-NP, 0.1235 µM | 1.06
KHOS-NP, 0.3704 µM | 1.05
KHOS-NP, 1.111 µM | 1.05
KHOS-NP, 3.333 µM | 1.04
KHOS-NP, 10 µM | 1.02
MES-SA, 0.00017 µM | 0.912
MES-SA, 0.00051 µM | 0.892
MES-SA, 0.00152 µM | 0.878
MES-SA, 0.00457 µM | 0.885
MES-SA, 0.01372 µM | 0.883
MES-SA, 0.04115 µM | 0.884
MES-SA, 0.1235 µM | 0.879
MES-SA, 0.3704 µM | 0.889
MES-SA, 1.111 µM | 0.882
MES-SA, 3.333 µM | 0.839
MES-SA, 10 µM | 0.79
RD, 0.00017 µM | 1.08
RD, 0.00051 µM | 1.074
RD, 0.00152 µM | 1.053
RD, 0.00457 µM | 1.08
RD, 0.01372 µM | 1.08
RD, 0.04115 µM | 1.09
RD, 0.1235 µM | 1.1
RD, 0.3704 µM | 1.118
RD, 1.111 µM | 1.04
RD, 3.333 µM | 1.08
RD, 10 µM | 1.01
RD-ES, 0.00017 µM | 0.972
RD-ES, 0.00051 µM | 0.981
RD-ES, 0.00152 µM | 0.986
RD-ES, 0.00457 µM | 0.965
RD-ES, 0.01372 µM | 0.968
RD-ES, 0.04115 µM | 0.9621
RD-ES, 0.1235 µM | 0.958
RD-ES, 0.3704 µM | 0.952
RD-ES, 1.111 µM | 0.936
RD-ES, 3.333 µM | 0.884
RD-ES, 10 µM | 0.867
SK-ES-1, 0.00017 µM | 0.964
SK-ES-1, 0.00051 µM | 0.979
SK-ES-1, 0.00152 µM | 0.986
SK-ES-1, 0.00457 µM | 0.974
SK-ES-1, 0.01372 µM | 1.03
SK-ES-1, 0.04115 µM | 0.973
SK-ES-1, 0.1235 µM | 1.02
SK-ES-1, 0.3704 µM | 0.985
SK-ES-1, 1.111 µM | 0.92
SK-ES-1, 3.333 µM | 0.916
SK-ES-1, 10 µM | 0.74
SK-LMS-1, 0.00017 µM | 0.941
SK-LMS-1, 0.00051 µM | 0.942
SK-LMS-1, 0.00152 µM | 0.932
SK-LMS-1, 0.00457 µM | 0.957
SK-LMS-1, 0.01372 µM | 0.938
SK-LMS-1, 0.04115 µM | 0.988
SK-LMS-1, 0.1235 µM | 0.921
SK-LMS-1, 0.3704 µM | 0.995
SK-LMS-1, 1.111 µM | 0.984
SK-LMS-1, 3.333 µM | 0.883
SK-LMS-1, 10 µM | 0.858
SW684, 0.00017 µM | 1.1
SW684, 0.00051 µM | 1.09
SW684, 0.00152 µM | 1.08
SW684, 0.00457 µM | 1.03
SW684, 0.01372 µM | 1.04
SW684, 0.04115 µM | 1.05
SW684, 0.1235 µM | 1.09
SW684, 0.3704 µM | 1.08
SW684, 1.111 µM | 1.13
SW684, 3.333 µM | 1.09
SW684, 10 µM | 1.02
SW872, 0.00017 µM | 0.926
SW872, 0.00051 µM | 0.924
SW872, 0.00152 µM | 0.968
SW872, 0.00457 µM | 0.951
SW872, 0.01372 µM | 0.939
SW872, 0.04115 µM | 0.963
SW872, 0.1235 µM | 0.921
SW872, 0.3704 µM | 0.977
SW872, 1.111 µM | 0.9644
SW872, 3.333 µM | 0.974
SW872, 10 µM | 0.988
SW1353, 0.00017 µM | 0.959
SW1353, 0.00051 µM | 0.935
SW1353, 0.00152 µM | 0.899
SW1353, 0.00457 µM | 0.95
SW1353, 0.01372 µM | 0.953
SW1353, 0.04115 µM | 0.953
SW1353, 0.1235 µM | 0.942
SW1353, 0.3704 µM | 0.958
SW1353, 1.111 µM | 0.922
SW1353, 3.333 µM | 0.949
SW1353, 10 µM | 0.961
VA-ES-BJ, 0.00017 µM | 1.03
VA-ES-BJ, 0.00051 µM | 1.01
VA-ES-BJ, 0.00152 µM | 1
VA-ES-BJ, 0.00457 µM | 1.02
VA-ES-BJ, 0.01372 µM | 1.02
VA-ES-BJ, 0.04115 µM | 1.03
VA-ES-BJ, 0.1235 µM | 1.04
VA-ES-BJ, 0.3704 µM | 1.03
VA-ES-BJ, 1.111 µM | 1.04
VA-ES-BJ, 3.333 µM | 0.999
VA-ES-BJ, 10 µM | 0.968
